Experimental findings from US12336991B2, “Factor XIIA inhibitors” (UNIVERSITY OF LEEDS, priority 2018, dated 2025) are described below.

Format in all cases: biochemical
The target in assay [1] is FXa (Homo sapiens, UniProt P00742). In words: Determination of selectivity: FXa inhibition, chromogenic substrate S2765 assay. To be noted: fold selectivity for FXIIa over FXa. How it is done: (§1) The activities of the compounds of the invention have been determined in vitro using the following assays protocols for the screening of activity of FXIIa and other proteases. Each of these assays were performed in a purified system employing the use of chromogenic assays in microplate plate wells. Chromogenic peptide substrates mimicking natural protein substrates are attached via an amide bond to a chromogenic group. Paranitroaniline (pNA) is released from the peptide following catalyses by the proteolytic enzyme; the absorbance increases and can be monitored at 405 nm.
(§2) All compounds were dissolved in 100% (v/v) DMSO to a stock concentration of 10 mM, the highest concentration of compound used in each assay is 500 μM. The final concentrations of DMSO were 5% (v/v) in 50 mM Tris 137 mM NaC pH 7.4. Where no test compound was added a final concentration of 5% DMSO was employed.
(§3) Determination of Selectivity
(§4) To determine selectivity of test compounds, these test compounds were assayed for inhibitory activity against other serine proteases including FXa and thrombin. Essentially compounds at increasing concentrations were incubated with each enzyme: FXa (5 nM) and thrombin (5 nM), for 10 mins at 37° C. followed the appropriate chromogenic substrate, S2765 ([…]), and GPR ([…]) respectively in 50 mM Tris, 137 mM NaCl, pH 7.4. Chromogenic substrates S2765 was from Chromogenix, and GPR from Bachem. Kinetic readings at 405 nm were monitored every 12 secs for a total duration of 3 hours at 37° C. Gradients of initial rates were determined and employed to calculate IC50 values. Values of IC50 were converted to Ki values based on the formula: Ki=IC50/(1+[Substrate]/Km)
(§5) Where [Substrate] denotes the concentration of substrate used in the assay and Km is the determined value of each enzyme with its own substrate.
(§6) The fold selectivity for FXIIa over thrombin for the compounds of the invention has been categorised based on the fold selectivity values, the categories being “+”, “++” and “+++”. The category “+” refers to fold selectivity values less than 10. The category “++” refers to a fold selectivity value of 10 to 100. The category “+++” refers to fold selectivity values greater than 100.
The fold selectivity for FXIIa over FXa for the compounds of the invention has been categorised based on the fold selectivity values, the categories being “o”, “oo” and “ooo”. The category “o” refers to fold selectivity values less than 10. The category “oo” refers to a fold selectivity value of 10 to 100. The category “ooo” refers to fold selectivity values greater than 100.

Assay [2] addresses T1, thrombin (Homo sapiens, UniProt P00734).
T1 construct: FXa (5 nM) and thrombin (5 nM)
Kind of assay: Determination of selectivity: thrombin inhibition, chromogenic substrate GPR assay. To be noted: fold selectivity for FXIIa over thrombin. Here is the method:
as §1, §2, §3, §4, §5, §6

In assay [3] the target is T2, FXIIa (Homo sapiens, UniProt P00748).
T2 sequence (P00748 373-615 limits assumed): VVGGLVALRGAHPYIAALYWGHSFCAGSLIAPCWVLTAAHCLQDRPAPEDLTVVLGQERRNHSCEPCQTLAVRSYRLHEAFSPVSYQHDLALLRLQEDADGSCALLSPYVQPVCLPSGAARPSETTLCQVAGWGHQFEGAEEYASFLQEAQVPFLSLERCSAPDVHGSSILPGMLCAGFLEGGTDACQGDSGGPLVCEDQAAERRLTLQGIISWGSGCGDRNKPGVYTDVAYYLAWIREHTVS
T2 sequence (P00748 20-372 partner limits assumed): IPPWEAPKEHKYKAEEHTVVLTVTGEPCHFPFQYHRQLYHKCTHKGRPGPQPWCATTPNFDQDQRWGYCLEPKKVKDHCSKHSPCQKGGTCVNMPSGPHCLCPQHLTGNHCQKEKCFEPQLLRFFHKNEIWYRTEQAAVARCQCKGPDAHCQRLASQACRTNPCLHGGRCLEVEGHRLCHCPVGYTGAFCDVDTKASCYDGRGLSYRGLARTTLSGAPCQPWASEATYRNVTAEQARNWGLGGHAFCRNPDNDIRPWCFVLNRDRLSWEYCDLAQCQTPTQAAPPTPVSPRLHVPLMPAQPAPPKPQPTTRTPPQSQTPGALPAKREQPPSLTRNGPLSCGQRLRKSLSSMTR
In words: Determination of Factor XIIa inhibition, chromogenic substrate S-2302 assay. To be noted: human FXIIa alpha. Here is the method:
as §1, §2
Determination of Factor XIa Inhibition
Factor XIa activity was measured using a chromogenic substrate S-2302 (Chromogenix). Various concentrations of compound were incubated with 10 nM of FXIIa and incubated at 37° C. for 10 minutes in 50 mM Tris, 137 mM NaCl, pH 7.4, prior to the addition of a final concentration of 450 µM S-2302 chromogenic substrate. Kinetic readings at 405 nm were monitored every 12 secs for a total duration of 3 hours at 37° C. Gradients of initial rates were determined and employed to calculate IC50 values. Values of IC50 were converted to Ki values based on the formula: Ki=IC50/(1+[Substrate]/Km).
The activity of the compounds of the invention has been categorised based on the Ki values, the categories being “*”, “**” and “***”. […] The category “**” refers to compounds with a Ki value of 0.2 μM to 2 μM.

Chain of FXa (P00742 235-488 limits assumed): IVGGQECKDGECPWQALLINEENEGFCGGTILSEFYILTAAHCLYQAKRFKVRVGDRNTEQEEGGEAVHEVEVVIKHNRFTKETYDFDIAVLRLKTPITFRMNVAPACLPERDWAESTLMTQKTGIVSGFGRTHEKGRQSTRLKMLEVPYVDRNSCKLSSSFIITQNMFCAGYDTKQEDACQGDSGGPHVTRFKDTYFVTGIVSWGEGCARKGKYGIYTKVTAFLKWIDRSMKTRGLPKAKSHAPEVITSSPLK
Chain of FXa (P00742 41-179 partner limits assumed): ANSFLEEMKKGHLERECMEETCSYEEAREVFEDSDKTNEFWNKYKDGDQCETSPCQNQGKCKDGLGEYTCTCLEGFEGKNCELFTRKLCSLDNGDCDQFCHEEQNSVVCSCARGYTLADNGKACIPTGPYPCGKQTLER

`COc1ccc(C[C@@H]2C[C@@H](C(=O)NCc3ccc4c(c3)nnn4C)N(C(=O)[C@H](N)CCC(=O)N3CCCNCC3)C2)cc1` [Example M05461]: the “FXa (human)/FXIIa alpha (human)” value in assay [1] was “∘∘∘”. In addition, in assay [2], the “Thrombin (human)/FXIIa alpha (human)” value is recorded as “+++ (fold selectivity values greater than 100)”. The Ki in assay [3] was < 200 nM.
For `Cn1nnc2cc(CNC(=O)[C@@H]3C[C@H](C(F)(F)F)CN3C(=O)[C@H]3C[C@@H](c4ccccc4)CN3)ccc21` [Example M05280] the same measures were “∘∘”, “++ (fold selectivity value of 10 to 100)” and > 2000 nM.
Take `Cn1nnc2cc(CNC(=O)[C@@H]3C[C@@H](Cc4cccc(-c5ccncc5)c4)CN3C(=O)[C@H](N)CCC(=O)N3CCCC3)ccc21` [Example M05323]: the “FXa (human)/FXIIa alpha (human)” value in assay [1] is listed as “∘∘∘”. Moreover, in assay [2], the “Thrombin (human)/FXIIa alpha (human)” value is on record as “+++ (fold selectivity values greater than 100)”. The Ki in assay [3] is < 200 nM.
For `Cn1nnc2cc(CNC(=O)[C@@H]3C[C@@H](Cc4ccc(F)cc4F)CN3C(=O)[C@H]3C[C@@H](c4ccccc4)CN3)ccc21` [Example M05361] the same measures were “∘∘”, “++ (fold selectivity value of 10 to 100)” and 200 to 2000 nM.
For `Cn1nnc2cc(CNC(=O)[C@@H]3C[C@H](Cc4cccc(F)c4)CN3C(=O)[C@H](N)CCC(=O)N3CCCC3)ccc21` [Example M05232], in that order: “∘∘∘”, “+++ (fold selectivity values greater than 100)” and 200 to 2000 nM.
`COc1ccc(C[C@@H]2C[C@@H](C(=O)NCc3cccs3)N(C(=O)[C@H](N)CCC(=O)N3CCCC3)C2)cc1` [Example M00972]: the “FXa (human)/FXIIa alpha (human)” value in assay [1] is on record as “∘∘”. Also, the “Thrombin (human)/FXIIa alpha (human)” value in assay [2] is reported as “++ (fold selectivity value of 10 to 100)”. The Ki in assay [3] was 200 to 2000 nM.
For `Cc1ccc(C[C@@H]2C[C@@H](C(=O)NCc3ccc4c(c3)nnn4C)N(C(=O)[C@H]3C[C@@H](c4ccccc4)CN3)C2)cc1` [Example M05328] the same measures were “∘∘∘”, “++ (fold selectivity value of 10 to 100)” and 200 to 2000 nM.
For `Cn1nnc2cc(CNC(=O)[C@@H]3C[C@@H](Cc4ccc(OC(F)(F)F)cc4)CN3C(=O)[C@H]3C[C@@H](c4ccccc4)CN3)ccc21` [Example M05362], in that order: “∘∘”, “++ (fold selectivity value of 10 to 100)” and 200 to 2000 nM.
For `COc1ccc(C[C@@H]2C[C@@H](C(=O)NCc3ccc4c(c3)nnn4C)N(C(=O)[C@H](N)CCC(=O)N3CCC[C@@H]3C(C)C)C2)cc1` [Example M05412] the same measures were “∘∘∘”, “+++ (fold selectivity values greater than 100)” and < 200 nM.
As to `Cn1nnc2cc(CNC(=O)[C@@H]3C[C@@](O)(c4ccc(F)c(F)c4)CN3C(=O)[C@H](N)CCc3ccccc3)ccc21` [Example M05128], the “FXa (human)/FXIIa alpha (human)” value in assay [1] was “∘∘”. Also, the “Thrombin (human)/FXIIa alpha (human)” value in assay [2] is reported as “++ (fold selectivity value of 10 to 100)”. Further, the inhibitory constant (Ki) in assay [3] is > 2000 nM.
For `COc1ccc(C[C@@H]2C[C@@H](C(=O)NCc3ccc4c(c3)nnn4C)N(C(=O)C3NCCc4cc(O)ccc43)C2)cc1` (stereo partly drawn) [Example M05429] the same measures were “∘∘”, “++ (fold selectivity value of 10 to 100)” and > 2000 nM.
For `Cn1nnc2cc(CNC(=O)[C@@H]3CC(Cc4ccccc4Br)CN3C(=O)[C@H]3C[C@@H](c4ccccc4)CN3)ccc21` (stereo partly drawn) [Example M05329], in that order: “∘∘”, “++ (fold selectivity value of 10 to 100)” and > 2000 nM.
With `COc1ccc(C[C@@H]2C[C@@H](C(=O)NCc3ccc4c(c3)nnn4C)N(C(=O)[C@H](N)CCC(=O)N3CCCC3)C2)cc1` [Example M05272], the “FXa (human)/FXIIa alpha (human)” value in assay [1] is given as “∘∘∘”. Also, in assay [2], the “Thrombin (human)/FXIIa alpha (human)” value is given as “+++ (fold selectivity values greater than 100)”. Also, the Ki in assay [3] was < 200 nM.
For `CCOc1ccc(C[C@@H]2C[C@@H](C(=O)NCc3ccc4c(c3)nnn4C)N(C(=O)[C@H]3C[C@@H](c4ccccc4)CN3)C2)cc1` [Example M05382] the same measures were “∘∘∘”, “+++ (fold selectivity values greater than 100)” and 200 to 2000 nM.
`COc1ccc(C[C@@H]2C[C@@H](C(=O)NCc3ccc4c(c3)nnn4C)N(C(=O)[C@H]3C[C@@H](N4CCCCC4)CN3)C2)cc1` [Example M00955]: the “FXa (human)/FXIIa alpha (human)” value in assay [1] is “∘∘∘”. The “Thrombin (human)/FXIIa alpha (human)” value in assay [2] is “+++ (fold selectivity values greater than 100)”. The molecule also yielded a Ki in assay [3] of 200 to 2000 nM.
Regarding `Cn1nnc2cc(CNC(=O)[C@@H]3C[C@H](N)CN3C(=O)[C@H](N)CCc3ccccc3)ccc21` [Example M05143], the “FXa (human)/FXIIa alpha (human)” value in assay [1] is recorded as “∘∘”. Moreover, in assay [2], the “Thrombin (human)/FXIIa alpha (human)” value is recorded as “++ (fold selectivity value of 10 to 100)”. The Ki in assay [3] was > 2000 nM.
For `COc1ccc(C[C@@H]2C[C@@H](C(=O)NCc3ccc4c(c3)nnn4C)N(C(=O)[C@H]3C[C@@H](c4ccccc4)CN3)C2)cc1F` [Example M05352] the same measures were “∘∘∘”, “+++ (fold selectivity values greater than 100)” and 200 to 2000 nM.
For `Cn1nnc2cc(CNC(=O)[C@@H]3C[C@@H](CC4CCCC4)CN3C(=O)[C@H](N)CCC(=O)N3CCCC3)ccc21` [Example M05291], in that order: “∘∘∘”, “+++ (fold selectivity values greater than 100)” and 200 to 2000 nM.
For `COc1ccc(C[C@@H]2C[C@@H](C(=O)NCc3ccc4c(c3)nnn4C)N(C(=O)[C@H]3CC(c4ccccc4C)CN3)C2)cc1` (stereo partly drawn) [Example M05365], in that order: “∘∘∘”, “+++ (fold selectivity values greater than 100)” and 200 to 2000 nM.
On to `COc1ccc(C[C@@H]2C[C@@H](C(=O)NCc3ccc4c(c3)nnn4C)N(C(=O)[C@H]3CC(c4ccccc4F)CN3)C2)cc1` (stereo partly drawn) [Example M05377], for which the “FXa (human)/FXIIa alpha (human)” value in assay [1] was “∘∘∘”. The “Thrombin (human)/FXIIa alpha (human)” value in assay [2] is on record as “+++ (fold selectivity values greater than 100)”. This molecule also yielded a Ki in assay [3] of 200 to 2000 nM.
For `COc1ccc(C[C@@H]2C[C@@H](C(=O)NCc3ccc4c(c3)nnn4C)N(C(=O)[C@H]3CC(c4cnccn4)CN3)C2)cc1` (stereo partly drawn) [Example M05459] the same measures were “∘∘∘”, “+++ (fold selectivity values greater than 100)” and 200 to 2000 nM.

Broadly, the Ki is a measure of affinity in units of concentration, obtained from inhibition or displacement.
